From the supplement of paper PMC12698765
Structures can show the parent of a compound that is named as a salt. ± gives the standard deviation of the averaged measurements.

Experiments:
[1] = system: 409B2 hiPSC (iCRISPR Cas9, FRMD7 editing); test: cell survival relative to solvent control (fold (ratio to mock)); higher = more surviving cells
Procedure: (§1)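 Subset screen of 55 drugs tested at 5 concentrations around the effective screening dose, in 409B2 iCRISPR Cas9 hiPSCs editing FRMD7 with a ssDNA donor. Drugs were applied for 24 h. Viability was read by resazurin and editing outcomes by amplicon sequencing (HDR, NHEJ <2 bp microhomology, MMEJ ≥2 bp microhomology). Values are relative to solvent mock controls; two biological replicates.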

[2] = system: 409B2 hiPSC (iCRISPR Cas9, FRMD7 editing); test: MMEJ-attributed deletion frequency relative to solvent control (fold (ratio to mock)); higher = more MMEJ outcomes
Procedure: as §1

[3] = system: 409B2 hiPSC (iCRISPR Cas9, FRMD7 editing); test: HDR (precise edit) frequency relative to solvent control (fold (ratio to mock)); higher = more homology-directed repair outcomes
Procedure: as §1

[4] = system: 409B2 hiPSC (iCRISPR Cas9, FRMD7 editing); test: NHEJ-attributed indel frequency relative to solvent control (fold (ratio to mock)); higher = more NHEJ outcomes
Procedure: as §1

For CSCCC(N)C(=O)O (racemic) [DL-Methionine] (in H2O), the cell survival ([1]; 20 nM) was 0.974, the cell survival ([1]; 50 nM) was 0.972 and the cell survival ([1]; 100 nM) was 0.891. For the same compound, the cell survival ([1]; 200 nM) was 0.957, the cell survival ([1]; 500 nM) was 0.861 and the MMEJ-attributed deletion frequency ([2]; 20 nM) was 0.912 ± 0.069. The MMEJ-attributed deletion frequency ([2]; 50 nM) was 0.924 ± 0.017, the MMEJ-attributed deletion frequency ([2]; 100 nM) was 0.802 ± 0.018 and the MMEJ-attributed deletion frequency ([2]; 200 nM) was 0.877 ± 0.13. It also gave an MMEJ-attributed deletion frequency ([2]; 500 nM) of 0.912 ± 0.042, an HDR ([3]; 20 nM) of 1.001 ± 0.0057 and an HDR ([3]; 50 nM) of 0.932 ± 0.021. The HDR ([3]; 100 nM) was 0.943 ± 0.051, the HDR ([3]; 200 nM) was 0.937 ± 0.044 and the HDR ([3]; 500 nM) was 0.917 ± 0.011. It also gave an NHEJ-attributed indel frequency ([4]; 20 nM) of 1.01 ± 0.025, an NHEJ-attributed indel frequency ([4]; 50 nM) of 1.038 ± 0.0021 and an NHEJ-attributed indel frequency ([4]; 100 nM) of 1.04 ± 0.0044. The NHEJ-attributed indel frequency ([4]; 200 nM) was 1.03 ± 0.011 and the NHEJ-attributed indel frequency ([4]; 500 nM) was 1.02 ± 0.016.
Cc1c(C(C)C)c(=O)n(-c2ccccc2)n1C [Propyphenazone (4-Isopropylantipyrine)] (in DMSO) was tested, and the cell survival ([1]; 200 nM) was 1.03, the cell survival ([1]; 500 nM) was 1.24 and the cell survival ([1]; 1000 nM) was 1.03. For the same compound, the cell survival ([1]; 2000 nM) was 1.2, the cell survival ([1]; 5000 nM) was 1.13 and the MMEJ-attributed deletion frequency ([2]; 200 nM) was 0.984 ± 0.021. The MMEJ-attributed deletion frequency ([2]; 500 nM) was 0.969 ± 0.059, the MMEJ-attributed deletion frequency ([2]; 1000 nM) was 0.881 ± 0.036 and the MMEJ-attributed deletion frequency ([2]; 2000 nM) was 0.954 ± 0.091. For the same compound, the MMEJ-attributed deletion frequency ([2]; 5000 nM) was 0.965 ± 0.06, the HDR ([3]; 200 nM) was 1.04 ± 0.021 and the HDR ([3]; 500 nM) was 1.11 ± 0.044. For the same compound, the HDR ([3]; 1000 nM) was 1.1 ± 0.068, the HDR ([3]; 2000 nM) was 1.07 ± 0.064 and the HDR ([3]; 5000 nM) was 1.08 ± 0.031. It also gave an NHEJ-attributed indel frequency ([4]; 200 nM) of 1.01 ± 0.013, an NHEJ-attributed indel frequency ([4]; 500 nM) of 0.993 ± 0.022 and an NHEJ-attributed indel frequency ([4]; 1000 nM) of 0.993 ± 0.041. It also gave an NHEJ-attributed indel frequency ([4]; 2000 nM) of 0.995 ± 0.035 and an NHEJ-attributed indel frequency ([4]; 5000 nM) of 0.988 ± 0.014.
Work on CC1(C)S[C@@H]2[C@H](NC(=O)COc3ccccc3)C(=O)N2[C@H]1C(=O)O [Penicillin V potassium salt] (in DMSO) yielded a cell survival ([1]; 200 nM) of 0.876, a cell survival ([1]; 500 nM) of 1.15 and a cell survival ([1]; 1000 nM) of 0.976. The cell survival ([1]; 2000 nM) was 0.894, the cell survival ([1]; 5000 nM) was 0.923 and the MMEJ-attributed deletion frequency ([2]; 200 nM) was 1.02 ± 0.097. The MMEJ-attributed deletion frequency ([2]; 500 nM) was 0.994 ± 0.04, the MMEJ-attributed deletion frequency ([2]; 1000 nM) was 0.963 ± 0.15 and the MMEJ-attributed deletion frequency ([2]; 2000 nM) was 1.1 ± 0.047. For the same compound, the MMEJ-attributed deletion frequency ([2]; 5000 nM) was 1.05 ± 0.11, the HDR ([3]; 200 nM) was 0.992 ± 0.094 and the HDR ([3]; 500 nM) was 1.05 ± 0.012. The HDR ([3]; 1000 nM) was 0.992 ± 0.02, the HDR ([3]; 2000 nM) was 1.01 ± 0.062 and the HDR ([3]; 5000 nM) was 0.964 ± 0.11. For the same compound, the NHEJ-attributed indel frequency ([4]; 200 nM) was 1.006 ± 0.0015, the NHEJ-attributed indel frequency ([4]; 500 nM) was 1.012 ± 0.0034 and the NHEJ-attributed indel frequency ([4]; 1000 nM) was 0.9903 ± 0.0037. The NHEJ-attributed indel frequency ([4]; 2000 nM) was 1 ± 0.021 and the NHEJ-attributed indel frequency ([4]; 5000 nM) was 1.01 ± 0.013.
Work on CCCCc1oc2ccc(NS(C)(=O)=O)cc2c1C(=O)c1ccc(OCCCN(CCCC)CCCC)cc1 [Dronedarone HCl] (in DMSO) yielded a cell survival ([1]; 200 nM) of 1.15, a cell survival ([1]; 500 nM) of 1.01 and a cell survival ([1]; 1000 nM) of 0.696. The cell survival ([1]; 2000 nM) was 0.521, the cell survival ([1]; 5000 nM) was 0.261 and the MMEJ-attributed deletion frequency ([2]; 200 nM) was 0.537 ± 0.76. The MMEJ-attributed deletion frequency ([2]; 500 nM) was 0.463 ± 0.65, the MMEJ-attributed deletion frequency ([2]; 1000 nM) was 0.895 ± 0.18 and the MMEJ-attributed deletion frequency ([2]; 2000 nM) was 0.923 ± 0.16. The MMEJ-attributed deletion frequency ([2]; 5000 nM) was 1.18 ± 0.34, the HDR ([3]; 200 nM) was 0.891 ± 0.2 and the HDR ([3]; 500 nM) was 0.835 ± 0.2. For the same compound, the HDR ([3]; 1000 nM) was 0.734 ± 0.051, the HDR ([3]; 2000 nM) was 0.513 ± 0.071 and the HDR ([3]; 5000 nM) was 0.556 ± 0.012. It also gave an NHEJ-attributed indel frequency ([4]; 200 nM) of 0.991 ± 0.011, an NHEJ-attributed indel frequency ([4]; 500 nM) of 1.04 ± 0.043 and an NHEJ-attributed indel frequency ([4]; 1000 nM) of 1.01 ± 0.013. For the same compound, the NHEJ-attributed indel frequency ([4]; 2000 nM) was 0.958 ± 0.093 and the NHEJ-attributed indel frequency ([4]; 5000 nM) was 1.06 ± 0.092.
Compound Cc1nc(=O)c2cc(CN(C)c3ccc(C(=O)N[C@@H](CCC(=O)O)C(=O)O)s3)ccc2[nH]1 [Raltitrexed] (in DMSO) has a cell survival ([1]; 200 nM) of 1.09, a cell survival ([1]; 500 nM) of 1.21 and a cell survival ([1]; 1000 nM) of 0.963. For the same compound, the cell survival ([1]; 2000 nM) was 1.05, the cell survival ([1]; 5000 nM) was 1.11 and the MMEJ-attributed deletion frequency ([2]; 200 nM) was 1.01 ± 0.14. The MMEJ-attributed deletion frequency ([2]; 500 nM) was 1 ± 0.078, the MMEJ-attributed deletion frequency ([2]; 1000 nM) was 1.12 ± 0.035 and the MMEJ-attributed deletion frequency ([2]; 2000 nM) was 0.948 ± 0.012. For the same compound, the MMEJ-attributed deletion frequency ([2]; 5000 nM) was 1.02 ± 0.057, the HDR ([3]; 200 nM) was 1.138 ± 0.0048 and the HDR ([3]; 500 nM) was 1.13 ± 0.038. It also gave an HDR ([3]; 1000 nM) of 1.16 ± 0.1, an HDR ([3]; 2000 nM) of 1.13 ± 0.042 and an HDR ([3]; 5000 nM) of 1.13 ± 0.14. For the same compound, the NHEJ-attributed indel frequency ([4]; 200 nM) was 0.977 ± 0.023, the NHEJ-attributed indel frequency ([4]; 500 nM) was 0.967 ± 0.01 and the NHEJ-attributed indel frequency ([4]; 1000 nM) was 0.984 ± 0.021. For the same compound, the NHEJ-attributed indel frequency ([4]; 2000 nM) was 0.981 ± 0.026 and the NHEJ-attributed indel frequency ([4]; 5000 nM) was 0.957 ± 0.039.
CN(C)C(=O)C(CCN1CCC(O)(c2ccc(Cl)cc2)CC1)(c1ccccc1)c1ccccc1 [Loperamide HCl] (in DMSO) was tested, and the cell survival ([1]; 2000 nM) was 0.928, the cell survival ([1]; 5000 nM) was 1.24 and the cell survival ([1]; 10000 nM) was 0.607. It also gave a cell survival ([1]; 20000 nM) of -0.00906, a cell survival ([1]; 50000 nM) of -0.00864 and an MMEJ-attributed deletion frequency ([2]; 2000 nM) of 1.31 ± 0.23. The MMEJ-attributed deletion frequency ([2]; 5000 nM) was 1.1 ± 0.094, the MMEJ-attributed deletion frequency ([2]; 10000 nM) was 0.998 ± 0.032 and the MMEJ-attributed deletion frequency ([2]; 20000 nM) was 0.465 ± 0.16. For the same compound, the MMEJ-attributed deletion frequency ([2]; 50000 nM) was 0.224 ± 0.07, the HDR ([3]; 2000 nM) was 0.9969 ± 0.0053 and the HDR ([3]; 5000 nM) was 1.01 ± 0.044. The HDR ([3]; 10000 nM) was 0.873 ± 0.035, the HDR ([3]; 20000 nM) was 0.136 ± 0.067 and the HDR ([3]; 50000 nM) was 0.138 ± 0.11. It also gave an NHEJ-attributed indel frequency ([4]; 2000 nM) of 0.923 ± 0.077, an NHEJ-attributed indel frequency ([4]; 5000 nM) of 0.9735 ± 0.0074 and an NHEJ-attributed indel frequency ([4]; 10000 nM) of 0.928 ± 0.06. The NHEJ-attributed indel frequency ([4]; 20000 nM) was 0.324 ± 0.053 and the NHEJ-attributed indel frequency ([4]; 50000 nM) was 0.186 ± 0.085.
